US20150105252A1, “SUBSTITUTED PYRAZOLES AS HERBICIDES” (E I DU PONT DE NEMOURS AND COMPANY, priority 2013, published 2015)

Assays:
oilseed rape = test: Test C preemergence; format: in vivo, Brassica napus; conditions: for Plant response rating, Oilseed Rape: Preemergence, scale 0 to 100
Source text: (§1) Seeds of plant species selected from blackgrass (Alopecurus myosuroides), ryegrass, Italian (Italian ryegrass, Lolium multiflorum), wheat (winter wheat, Triticum aestivum), galium (catchweed bedstraw, Galium aparine), corn (Zea mays), crabgrass, large (large crabgrass, Digitaria sanguinalis), foxtail, giant (giant foxtail, Setaria faberii), johnsongrass (Sorghum halepense), lambsquarters (Chenopodium album), morningglory (Ipomoea coccinea), nutsedge, yellow (yellow nutsedge, Cyperus esculentus), pigweed (redroot pigweed, Amaranthus retroflexus), ragweed (common ragweed, Ambrosia elation), soybean (Glycine max), barnyardgrass (Echinochloa crus-galli), oilseed rape (Brassica napus), waterhemp (common waterhemp, Amaranthus rudis), oat, wild (wild oat, Avena fatua), kochia (Kochia scoparia), Surinam grass (Brachiaria decumbens), foxtail, green (green foxtail, Setaria viridis), goosegrass (Eleusine indica), bromegrass, downy (downy bromegrass, Bromus tectorum), nightshade (eastern black nightshade, Solanum ptycanthum), cocklebur (common cocklebur, Xanthium strumarium), cupgrass, woolly (woolly cupgrass, Eriochloa villosa), bermudagrass (Cynodon dactylon), sunflower, (common oilseed sunflower, Helianthus annuus), Russian thistle (Salsola kali), and velvetleaf (Abutilon theophrasti) were planted into a blend of loam soil and sand and treated preemergence with test chemicals formulated in a non-phytotoxic solvent mixture which included a surfactant.
(§2) At the same time, plants selected from these crop and weed species and also chickweed (common chickweed, Stellaria media), canarygrass (littleseed canarygrass, Phalaris minor), and deadnettle (henbit deadnettle, Lamium amplexicaule), were planted in pots containing Redi-Earth® planting medium (Scotts Company, 14111 Scottslawn Road, Marysville, Ohio 43041) comprising spaghnum peat moss, vermiculite, wetting agent and starter nutrients and treated with postemergence applications of test chemicals formulated in the same manner. Plants ranged in height from 2 to 18 cm (1- to 4-leaf stage) for postemergence treatments. Treated plants and controls were maintained in a greenhouse for 13 to 15 days, after which time all species were compared to controls and visually evaluated. Plant response ratings, summarized in Table C, are based on a scale of 0 to 100 where 0 is no effect and 100 is complete control. A dash (-) response means no test result.

barnyardgrass = test: Test A preemergence; format: in vivo, Echinochloa crus-galli
Procedure, shortened: (§3)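 Pre- and postemergence greenhouse test; loam+sand; cpd in non-phytotox. solvent/surfactant; post at 1–2 leaf, 2–10 cm; visual score ~10 d, 0 = none, 100 = complete control.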

ragweed = test: Test C preemergence; format: in vivo, Ambrosia elation
Source text: as §1, §2

johnsongrass [1] = test: Test C preemergence; format: in vivo, Sorghum halepense
Procedure, shortened: (§4)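 Pre- and postemergence greenhouse screen; vehicle was a non-phytotoxic solvent mix with surfactant. Preemergence: treatment applied right after sowing into loam and sand. Postemergence: treated at 1–4 leaves. Visual rating at 13–15 days, 100 = complete control.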

blackgrass = test: Test C preemergence; format: in vivo, Alopecurus myosuroides
Procedure, shortened: as §4

pigweed [2] = test: Test A postemergence; format: in vivo, Amaranthus retroflexus
Procedure, shortened: as §3

foxtail, giant = test: Test C preemergence; format: in vivo, Setaria faberii
Procedure, shortened: as §4

pigweed [3] = test: Test A preemergence; format: in vivo, Amaranthus retroflexus
Procedure, shortened: as §3

wheat = test: Test C preemergence; format: in vivo, Triticum aestivum
Source text: as §1, §2

soybean = test: Test C preemergence; format: in vivo, Glycine max
Source text: as §1, §2

velvetleaf [4] = test: Test A preemergence; format: in vivo, Abutilon theophrasti
Procedure, shortened: as §3

velvetleaf [5] = test: Test A postemergence; format: in vivo, Abutilon theophrasti
Procedure, shortened: as §3

lambsquarters = test: Test C postemergence; format: in vivo, Chenopodium album; conditions: for Plant response rating, Lambsquarters: postemergence
Procedure, shortened: as §4

johnsongrass [6] = test: Test C postemergence; format: in vivo, Sorghum halepense; conditions: for Plant response rating, Johnsongrass: postemergence
Procedure, shortened: as §4

corn = test: Test C postemergence; format: in vivo, Zea mays; conditions: for Plant response rating, Corn: postemergence
Procedure, shortened: as §4

[7] = preemergence, 31 g ai/ha, visual rating, scale 0 to 100 (0 no effect, 100 complete control), 13 to 15 days
[8] = preemergence, 125 g ai/ha, visual injury, 0 to 100 scale, approx. 10 days
[9] = preemergence, 500 g ai/ha, visual injury after approx. 10 days, 0 to 100 scale (0 no effect, 100 complete control)
[10] = Preemergence, 4 g ai/ha, scale 0 to 100
[11] = Preemergence, 8 g ai/ha, scale 0 to 100
[12] = Preemergence, 16 g ai/ha, scale 0 to 100
[13] = Postemergence, 500 g ai/ha, 0 to 100 scale (0 no effect, 100 complete control)
[14] = postemergence, 125 g ai/ha, about 10 days, visual rating on 0 to 100 scale (0 no effect, 100 complete control)
[15] = Postemergence, 31 g ai/ha, scale 0 to 100
[16] = 250 g ai/ha, scale 0 to 100 (0 no effect, 100 complete control)
[17] = 62 g ai/ha, scale 0 to 100, 0 no effect, 100 complete control
[18] = 125 g ai/ha, scale 0 to 100, 0 no effect, 100 complete control
[19] = Preemergence, 500 g ai/ha, 0 to 100 scale, 0 no effect, 100 complete control
[20] = preemergence, 31 g ai/ha, scale 0 to 100 (0 no effect, 100 complete control), 13 to 15 days
[21] = preemergence, 62 g ai/ha, 13 to 15 days, scale 0 to 100, 0 = no effect, 100 = complete control
[22] = preemergence, 125 g ai/ha, scale 0 to 100, 0 is no effect, 100 is complete control
[23] = Postemergence, 500 g ai/ha, visual rating after approx. 10 days, 0 to 100 scale (0 no effect, 100 complete control)

Compound: CCOc1cc(C(=O)NCC(F)(F)F)nn1Cc1cc(C(F)(F)F)nn1C [Compound 140]
- Plant response rating, Oilseed Rape (oilseed rape; 4 g ai/ha): 5
- Plant response rating, Oilseed Rape (oilseed rape; 8 g ai/ha): 80
- Plant response rating, Oilseed Rape (oilseed rape; 16 g ai/ha): 95
- Oilseed Rape plant response rating (oilseed rape; [7]): 95
- Barnyardgrass plant response rating (barnyardgrass; [8]): 90
- Barnyardgrass plant response rating (barnyardgrass; [9]): 100
- Plant response rating, Ragweed (ragweed; [10]): 5
- Plant response rating, Ragweed (ragweed; [11]): 5
- Plant response rating, Ragweed (ragweed; [12]): 25
- Ragweed plant response rating (ragweed; [7]): 70
- Plant response rating, Johnsongrass (johnsongrass [1]; [10]): 20
- Plant response rating, Johnsongrass (johnsongrass [1]; [11]): 5
- Plant response rating, Johnsongrass (johnsongrass [1]; [12]): 5
- Johnsongrass plant response rating (johnsongrass [1]; [7]): 25
- Plant response rating, Blackgrass (blackgrass; [10]): 0
- Plant response rating, Blackgrass (blackgrass; [11]): 0
- Plant response rating, Blackgrass (blackgrass; [12]): 5
- Blackgrass plant response rating (blackgrass; [7]): 50
- Pigweed plant response rating (pigweed [2]; [13]): 100
- Pigweed plant response rating (pigweed [2]; [14]): 100
- Plant response rating, Foxtail, Giant (foxtail, giant; [10]): 20
- Plant response rating, Foxtail, Giant (foxtail, giant; [11]): 40
- Plant response rating, Foxtail, Giant (foxtail, giant; [12]): 75
- Foxtail, Giant plant response rating (foxtail, giant; [7]): 70
- Pigweed plant response rating (pigweed [3]; [8]): 100
- Pigweed plant response rating (pigweed [3]; [9]): 100
- Plant response rating, Wheat (wheat; [10]): 0
- Plant response rating, Wheat (wheat; [11]): 0
- Plant response rating, Wheat (wheat; [12]): 0
- Wheat plant response rating (wheat; [7]): 35
- Plant response rating, Soybean (soybean; [10]): 10
- Plant response rating, Soybean (soybean; [11]): 5
- Plant response rating, Soybean (soybean; [12]): 5
- Soybean plant response rating (soybean; [7]): 25
- Velvetleaf plant response rating (velvetleaf [4]; [8]): 60
- Velvetleaf plant response rating (velvetleaf [4]; [9]): 100
- Velvetleaf plant response rating (velvetleaf [5]; [13]): 80
- Velvetleaf plant response rating (velvetleaf [5]; [14]): 50

Compound: CCc1cc(C(=O)NOC(C)C)nn1Cc1cccc(OC(F)(F)F)c1 [Compound 70]
- Lambsquarters plant response rating (lambsquarters; [15]): 75
- Plant response rating, Lambsquarters (lambsquarters; [16]): 98
- Plant response rating, Lambsquarters (lambsquarters; [17]): 95
- Plant response rating, Lambsquarters (lambsquarters; [18]): 95
- Johnsongrass plant response rating (johnsongrass [6]; [15]): 0
- Plant response rating, Johnsongrass (johnsongrass [6]; [16]): 75
- Plant response rating, Johnsongrass (johnsongrass [6]; [17]): 0
- Plant response rating, Johnsongrass (johnsongrass [6]; [18]): 10
- Barnyardgrass plant response rating (barnyardgrass; [19]): 100
- Barnyardgrass plant response rating (barnyardgrass; [8]): 80
- Plant response rating (scale of 0 to 100), Ragweed (ragweed; Preemergence, 250 g ai/ha): 40
- Ragweed plant response rating (ragweed; [20]): 0
- Plant response rating, Ragweed (ragweed; [21]): 25
- Ragweed plant response rating (ragweed; [22]): 30
- Corn plant response rating (corn; [15]): 10
- Plant response rating, Corn (corn; [16]): 50
- Plant response rating, Corn (corn; [17]): 40
- Plant response rating, Corn (corn; [18]): 45
- Plant response rating (scale of 0 to 100), Johnsongrass (johnsongrass [1]; Preemergence, 250 g ai/ha): 95
- Johnsongrass plant response rating (johnsongrass [1]; [20]): 20
- Plant response rating, Johnsongrass (johnsongrass [1]; [21]): 65
- Johnsongrass plant response rating (johnsongrass [1]; [22]): 80
- Plant response rating (scale of 0 to 100), Blackgrass (blackgrass; Preemergence, 250 g ai/ha): 85
- Blackgrass plant response rating (blackgrass; [20]): 65
- Plant response rating, Blackgrass (blackgrass; [21]): 65
- Blackgrass plant response rating (blackgrass; [22]): 65
- Pigweed plant response rating (pigweed [2]; [23]): 100
- Pigweed plant response rating (pigweed [2]; [14]): 90
- Plant response rating (scale of 0 to 100), Foxtail, Giant (foxtail, giant; Preemergence, 250 g ai/ha): 98
- Foxtail, Giant plant response rating (foxtail, giant; [20]): 65
- Plant response rating, Foxtail, Giant (foxtail, giant; [21]): 75
- Foxtail, Giant plant response rating (foxtail, giant; [22]): 90
- Pigweed plant response rating (pigweed [3]; [19]): 100
- Pigweed plant response rating (pigweed [3]; [8]): 100
- Plant response rating (scale of 0 to 100), Wheat (wheat; Preemergence, 250 g ai/ha): 75
- Wheat plant response rating (wheat; [20]): 5
- Plant response rating, Wheat (wheat; [21]): 10
- Wheat plant response rating (wheat; [22]): 65
- Plant response rating (scale of 0 to 100), Soybean (soybean; Preemergence, 250 g ai/ha): 75
- Soybean plant response rating (soybean; [20]): 5
- Plant response rating, Soybean (soybean; [21]): 15
- Soybean plant response rating (soybean; [22]): 70
- Velvetleaf plant response rating (velvetleaf [4]; [19]): 80
- Velvetleaf plant response rating (velvetleaf [4]; [8]): 40
- Velvetleaf plant response rating (velvetleaf [5]; [23]): 90
- Velvetleaf plant response rating (velvetleaf [5]; [14]): 80
